Measurements published in PMC4077706, “Lifting the Mask: Identification of New Small Molecule Inhibitors of Uropathogenic Escherichia coli Group 2 Capsule Biogenesis” (PLoS ONE, 2014).
Where two headings read alike, the source gives them in different places.

Tests used:
Glutamate, Kainate = experiment: Radioligand binding 232700; set-up: species or system rat; conditions: 10 µM
[1] = target: T1, Leukotriene, Cysteinyl CysLT1 (Homo sapiens, UniProt Q9Y271); experiment: Radioligand binding 250460; conditions: 10 µM
T1 construct: host or cells: CHO-K1 cells

Purinergic P2X = experiment: Radioligand binding 268700; set-up: species or system rabbit; conditions: 10 µM
Imidazoline I2, Central = experiment: Radioligand binding 241000; set-up: species or system rat; conditions: 10 µM
Muscarinic M3 = Muscarinic M3 (Homo sapiens, UniProt P20309); assay type: binding; set-up: host or cells: CHO-K1 cells; conditions: 10 µM
Melatonin MT1 = target: T2, Melatonin MT1 (Homo sapiens, UniProt P48039); assay type: binding; conditions: 10 µM
T2 construct: host or cells: CHO-K1 cells

Adrenergic α1D = target: T3, Adrenergic α1D (Homo sapiens, UniProt P25100); assay type: binding; conditions: 10 µM
T3 construct: host or cells: HEK-293 cells

[2] = test system: GABAA, Flunitrazepam, Central; experiment: Radioligand binding 226600; set-up: species or system rat; conditions: 10 µM
Bradykinin B1 = target: T4, Bradykinin B1 (Homo sapiens, UniProt P46663); assay type: binding; conditions: 10 µM
T4 construct: Human IMR-90 cells; host or cells: IMR-90 cells

Neuropeptide Y Y2 = target: T5, Neuropeptide Y Y2 (Homo sapiens, UniProt P49146); assay type: binding; conditions: 10 µM
T5 construct: Human KAN-TS cells; host or cells: KAN-TS cells

[3] = target: T6, Androgen (Testosterone) AR (Rattus norvegicus, UniProt P15207); assay type: binding; conditions: 10 µM
T6 construct: Eurofins Panlabs (assay Cat #) 285010; host or cells: E. coli

Adrenergic α2A = target: T7, Adrenergic α2A (Homo sapiens, UniProt P08913); experiment: Radioligand binding 203620; conditions: 10 µM
T7 construct: host or cells: insect Sf9 cells
Protocol: Vehicle: 1% DMSO Non-Specific Ligand: 10.0 µM Phentolamine
Incubation Buffer: 50 mM Tris-HCl, pH 7.4, 0. 5 mM Quantitation Method: Radioligand Binding
Bmax: 0.18 pmole/mg Protein *
Incubation Time/Temp: 60 minutes @ 25°C Specific Binding: 80% *
Bmax: 0.17 pmole/mg Protein *
Source: Human recombinant insect Sf9 cells Ligand: 1.0 nM [3H]
Vehicle: 1% DMSO Non-Specific Ligand: 10.0 µM WB-4101
Incubation Time/Temp: 60 minutes @ 25°C Specific Binding: 95% *
Incubation Buffer: 50 mM Tris-HCl, pH 7.4, 12.5 mM Quantitation Method: Radioligand Binding
Bmax: 4.60 pmole/mg Protein *
Source: Human recombinant CHO-K1 cells Ligand: 0.030 nM [125I] Cyanopindolol
Incubation Time/Temp: 2 hours @ 25°C Specific Binding: 95% *
Incubation Buffer: 50 mM Tris-HCl, pH 7.4, 1.4 mM Quantitation Method: Radioligand Binding
Ascorbic Acid, 0.001% BSA, 5 mM
EDTA, 1.5 mM CaCl2, 120 mM NaCl
Bmax: 0.072 pmole/mg Protein *

Transporter, GABA = target: T8, Transporter, GABA (Rattus norvegicus, UniProt P23978); experiment: Radioligand binding 226400; conditions: 10 µM
T8 construct: Wistar Rat cerebral cortex; tissue Eurofins Panlabs 226400; host or cells: Wistar rat cerebral cortex

Adrenergic α1B = target: T9, Adrenergic α1B (Rattus norvegicus, UniProt P15823); assay type: binding; conditions: 10 µM
T9 construct: Wistar Rat liver; tissue Eurofins Panlabs (assay Cat #) 203200; host or cells: Wistar rat liver

[4] = target: T10, Transporter, Serotonin (5-Hydroxytryptamine) (SERT) (Homo sapiens, UniProt P31645); assay type: binding; conditions: 10 µM
T10 construct: host or cells: HEK-293

[5] = target: Calcium Channel L-Type, Benzothiazepine (Rattus norvegicus, UniProt P22002); assay type: binding; conditions: 10 µM
[6] = Human
[7] = Human; remark: listed apart in the source
[8] = target: Calcium Channel L-Type, Dihydropyridine (Rattus norvegicus, UniProt P22002); assay type: binding; conditions: 10 µM
E. coli UTI89 [9] = experiment: Human serum sensitization (MTT); assay type: cell-based, Escherichia coli; conditions: 50 µM, pooled human serum, vs DMSO p = 0.0067
Calcium Channel N-Type = Calcium Channel N-Type (Rattus norvegicus, UniProt Q02294); experiment: biochemical; assay type: binding; conditions: 10 µM
Adenosine A2A = target: T11, Adenosine A2A (Homo sapiens, UniProt P29274); experiment: Radioligand binding 200610; conditions: 10 µM
T11 construct: host or cells: HEK-293 cells

[10] = target: Serotonin (5-Hydroxytryptamine) 5-HT3 (Homo sapiens, UniProt P46098); assay type: binding; set-up: host or cells: HEK-293; conditions: 10 µM
Prostanoid EP4 = target: T12, Prostanoid EP4 (Homo sapiens, UniProt P35408); experiment: Radioligand binding 268420; conditions: 10 µM
T12 construct: host or cells: Chem-1

Adrenergic α1A = target: T13, Adrenergic α1A (Rattus norvegicus, UniProt P43140); experiment: Radioligand binding 203100; conditions: 10 µM
T13 construct: Wistar Rat submaxillary gland; tissue Eurofins Panlabs (assay Cat #) 203100; host or cells: Wistar rat submaxillary gland

Sigma σ1 = Sigma σ1 (Homo sapiens, UniProt Q99720); assay type: binding; conditions: 10 µM
E. coli UTI89 [11] = test system: E. coli UTI89
Potassium Channel [KATP] = target: T14, Potassium Channel [KATP] (Cricetus cricetus, UniProt Q09427); assay type: binding, hamster; conditions: 10 µM
T14 construct: Hamster pancreatic HIT-T15 beta; host or cells: HIT-T15 hamster pancreatic beta cells

Dopamine D4.2 = target: T15, Dopamine D4.2 (Homo sapiens, UniProt P21917, DEL265-296); assay type: binding; conditions: 10 µM
T15 construct: host or cells: CHO-K1 cells

Muscarinic M2 = target: T16, Muscarinic M2 (Homo sapiens, UniProt P08172); experiment: Radioligand binding 252710; conditions: 10 µM
T16 construct: host or cells: CHO-K1 cells

[12] = pre-treatment of bacteria without pretreatment of the mice

T6 sequence (P15207 607-902): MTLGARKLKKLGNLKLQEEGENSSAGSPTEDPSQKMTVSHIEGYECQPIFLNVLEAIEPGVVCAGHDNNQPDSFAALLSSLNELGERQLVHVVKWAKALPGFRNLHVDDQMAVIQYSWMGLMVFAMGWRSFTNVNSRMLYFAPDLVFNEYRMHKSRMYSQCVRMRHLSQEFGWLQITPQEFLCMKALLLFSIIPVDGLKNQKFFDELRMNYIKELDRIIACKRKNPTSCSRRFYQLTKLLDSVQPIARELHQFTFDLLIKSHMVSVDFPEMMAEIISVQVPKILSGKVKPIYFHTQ
T3 sequence (P25100 whole entry): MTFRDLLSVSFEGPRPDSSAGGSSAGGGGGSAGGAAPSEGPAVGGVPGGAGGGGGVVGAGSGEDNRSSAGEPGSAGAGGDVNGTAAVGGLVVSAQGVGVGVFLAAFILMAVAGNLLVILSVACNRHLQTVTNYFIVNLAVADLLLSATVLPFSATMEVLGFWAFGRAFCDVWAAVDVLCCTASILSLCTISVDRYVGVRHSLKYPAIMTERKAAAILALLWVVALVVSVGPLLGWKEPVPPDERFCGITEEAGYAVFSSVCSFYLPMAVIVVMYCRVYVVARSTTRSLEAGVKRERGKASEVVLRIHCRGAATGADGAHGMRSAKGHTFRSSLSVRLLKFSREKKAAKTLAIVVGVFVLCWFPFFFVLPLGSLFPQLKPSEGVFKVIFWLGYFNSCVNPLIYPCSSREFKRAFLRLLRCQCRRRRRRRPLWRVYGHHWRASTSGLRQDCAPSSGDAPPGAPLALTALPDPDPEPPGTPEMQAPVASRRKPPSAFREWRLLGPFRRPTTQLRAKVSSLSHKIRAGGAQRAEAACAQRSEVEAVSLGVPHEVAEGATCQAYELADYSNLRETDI
T14 sequence (Q09427 whole entry): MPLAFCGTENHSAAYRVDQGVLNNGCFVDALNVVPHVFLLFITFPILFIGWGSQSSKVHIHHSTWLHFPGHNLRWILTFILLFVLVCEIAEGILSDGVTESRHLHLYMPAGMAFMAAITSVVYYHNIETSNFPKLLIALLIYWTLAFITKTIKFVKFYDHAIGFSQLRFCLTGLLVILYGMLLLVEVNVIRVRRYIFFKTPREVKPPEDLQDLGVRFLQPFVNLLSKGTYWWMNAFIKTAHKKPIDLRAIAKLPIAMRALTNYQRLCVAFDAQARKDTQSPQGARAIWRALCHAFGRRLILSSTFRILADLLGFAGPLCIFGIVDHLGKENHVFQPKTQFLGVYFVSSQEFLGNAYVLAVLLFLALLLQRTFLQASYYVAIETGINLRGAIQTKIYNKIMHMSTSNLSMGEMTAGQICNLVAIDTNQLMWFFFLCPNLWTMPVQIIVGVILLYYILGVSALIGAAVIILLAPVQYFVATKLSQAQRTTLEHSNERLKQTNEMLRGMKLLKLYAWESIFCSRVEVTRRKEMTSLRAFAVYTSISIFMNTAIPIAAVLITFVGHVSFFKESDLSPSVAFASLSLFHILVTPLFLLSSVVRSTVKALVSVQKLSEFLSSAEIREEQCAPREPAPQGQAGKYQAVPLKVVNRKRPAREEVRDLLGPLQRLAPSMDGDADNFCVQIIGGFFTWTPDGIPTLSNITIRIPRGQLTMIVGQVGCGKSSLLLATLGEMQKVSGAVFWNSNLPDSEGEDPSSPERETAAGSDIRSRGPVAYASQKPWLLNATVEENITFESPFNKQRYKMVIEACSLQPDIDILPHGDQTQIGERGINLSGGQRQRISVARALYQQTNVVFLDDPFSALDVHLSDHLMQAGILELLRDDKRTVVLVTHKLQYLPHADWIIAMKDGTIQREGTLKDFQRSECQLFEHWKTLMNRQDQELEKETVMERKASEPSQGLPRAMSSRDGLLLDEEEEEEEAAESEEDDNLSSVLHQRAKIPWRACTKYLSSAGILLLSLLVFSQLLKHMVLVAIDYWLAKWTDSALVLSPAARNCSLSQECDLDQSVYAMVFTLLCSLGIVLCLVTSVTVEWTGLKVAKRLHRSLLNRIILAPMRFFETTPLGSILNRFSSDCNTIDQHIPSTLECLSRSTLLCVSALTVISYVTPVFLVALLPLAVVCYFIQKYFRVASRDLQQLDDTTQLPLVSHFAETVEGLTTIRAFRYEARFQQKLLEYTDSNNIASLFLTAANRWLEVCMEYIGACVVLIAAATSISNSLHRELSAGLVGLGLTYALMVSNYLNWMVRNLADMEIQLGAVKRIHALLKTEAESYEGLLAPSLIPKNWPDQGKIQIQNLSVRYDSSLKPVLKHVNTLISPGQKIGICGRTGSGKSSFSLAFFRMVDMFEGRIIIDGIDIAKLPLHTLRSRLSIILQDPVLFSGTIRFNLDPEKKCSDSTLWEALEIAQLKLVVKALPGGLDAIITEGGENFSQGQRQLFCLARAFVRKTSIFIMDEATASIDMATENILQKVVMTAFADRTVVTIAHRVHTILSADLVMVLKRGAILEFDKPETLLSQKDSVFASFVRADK
T1 sequence (Q9Y271 whole entry): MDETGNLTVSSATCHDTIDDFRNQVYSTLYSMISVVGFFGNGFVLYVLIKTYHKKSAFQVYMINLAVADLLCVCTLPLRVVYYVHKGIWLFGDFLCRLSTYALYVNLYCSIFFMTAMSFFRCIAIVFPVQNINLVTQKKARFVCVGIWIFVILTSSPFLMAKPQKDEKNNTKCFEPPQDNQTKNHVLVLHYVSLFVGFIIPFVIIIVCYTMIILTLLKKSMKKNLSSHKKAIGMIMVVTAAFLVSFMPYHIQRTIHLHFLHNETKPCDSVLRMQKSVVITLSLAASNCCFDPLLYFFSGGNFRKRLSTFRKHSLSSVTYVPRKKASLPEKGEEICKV
T15 sequence (P21917 other isoform, or with tags, fused parts or gaps DEL265-296): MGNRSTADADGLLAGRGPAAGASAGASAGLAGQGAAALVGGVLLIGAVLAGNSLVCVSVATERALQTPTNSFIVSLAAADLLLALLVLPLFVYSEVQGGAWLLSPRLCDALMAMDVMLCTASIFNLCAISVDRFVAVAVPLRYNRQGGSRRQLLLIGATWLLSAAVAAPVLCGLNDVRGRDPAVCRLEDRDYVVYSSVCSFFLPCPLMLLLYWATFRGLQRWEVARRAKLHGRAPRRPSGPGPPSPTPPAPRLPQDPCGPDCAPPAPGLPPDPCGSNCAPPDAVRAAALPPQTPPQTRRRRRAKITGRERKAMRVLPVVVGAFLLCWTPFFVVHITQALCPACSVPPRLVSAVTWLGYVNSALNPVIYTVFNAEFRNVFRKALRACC
T5 sequence (P49146 whole entry): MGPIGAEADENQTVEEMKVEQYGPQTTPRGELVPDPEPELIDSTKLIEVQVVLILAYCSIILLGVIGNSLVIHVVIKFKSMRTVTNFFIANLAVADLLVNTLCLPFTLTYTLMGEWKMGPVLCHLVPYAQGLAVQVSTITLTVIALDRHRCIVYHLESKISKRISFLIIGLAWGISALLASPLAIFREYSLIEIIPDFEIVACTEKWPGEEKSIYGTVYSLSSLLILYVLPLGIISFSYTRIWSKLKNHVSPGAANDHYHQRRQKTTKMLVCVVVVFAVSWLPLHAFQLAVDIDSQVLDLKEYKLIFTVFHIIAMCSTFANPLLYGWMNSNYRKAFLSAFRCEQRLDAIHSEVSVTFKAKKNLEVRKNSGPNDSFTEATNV
Sequence of Serotonin (5-Hydroxytryptamine) 5-HT3 (P46098 24-478): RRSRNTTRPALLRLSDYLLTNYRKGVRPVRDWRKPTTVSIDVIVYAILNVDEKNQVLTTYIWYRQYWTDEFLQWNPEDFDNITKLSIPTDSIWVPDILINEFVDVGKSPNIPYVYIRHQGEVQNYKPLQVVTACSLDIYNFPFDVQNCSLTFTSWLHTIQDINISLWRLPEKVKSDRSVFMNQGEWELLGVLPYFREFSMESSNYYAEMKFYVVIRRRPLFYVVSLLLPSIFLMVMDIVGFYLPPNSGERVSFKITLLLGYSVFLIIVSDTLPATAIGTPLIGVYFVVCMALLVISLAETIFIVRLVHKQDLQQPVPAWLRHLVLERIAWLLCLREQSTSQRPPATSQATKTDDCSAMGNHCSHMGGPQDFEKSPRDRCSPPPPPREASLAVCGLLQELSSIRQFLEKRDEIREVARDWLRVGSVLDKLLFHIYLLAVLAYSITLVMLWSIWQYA
T2 sequence (P48039 whole entry): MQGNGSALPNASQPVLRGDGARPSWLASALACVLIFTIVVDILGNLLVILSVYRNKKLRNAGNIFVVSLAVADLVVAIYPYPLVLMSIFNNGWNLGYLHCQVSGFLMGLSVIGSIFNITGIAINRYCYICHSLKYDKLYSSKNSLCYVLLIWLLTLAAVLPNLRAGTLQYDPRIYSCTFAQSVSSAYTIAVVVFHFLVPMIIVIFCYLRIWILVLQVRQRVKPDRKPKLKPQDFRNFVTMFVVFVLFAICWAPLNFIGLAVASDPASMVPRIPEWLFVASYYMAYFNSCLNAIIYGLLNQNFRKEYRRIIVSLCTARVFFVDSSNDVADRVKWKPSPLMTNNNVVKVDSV

## CCOc1ccc(-c2cc(NC(=O)c3c(F)cccc3F)c(C(=O)O)s2)cc1 [DU011]
Glutamate, Kainate
  % Inh.: 3%
[1]
  % Inh.: 19%
Purinergic P2X
  % Inh.: 6%
Imidazoline I2, Central
  % Inh.: -23%
Muscarinic M3
  % Inh.: -3%
Melatonin MT1
  % Inh.: 7%
Adrenergic α1D
  % Inh.: 7%
[2]
  % Inh.: 12%
Bradykinin B1
  % Inh.: 12%
Neuropeptide Y Y2
  % Inh.: -6%
[3]
  % Inh.: 5%
Adrenergic α2A
  % Inh.: -14%
Transporter, GABA
  % Inh.: -4%
Adrenergic α1B
  % Inh.: 14%
[4]
  % Inh.: 5%
[5]
  % Inh.: -1%
[6]
  Hepatic Microsome Stability, percent remaining at 1 hr: 89.64%
[7]
  Plasma Stability, percent remaining at 3 hrs: 95.31%
[8]
  % Inh.: 18%
E. coli UTI89 [9]
  serum-mediated killing of UPEC (MTT): further increased serum-mediated killing
Calcium Channel N-Type
  % Inh.: -18%
Adenosine A2A
  % Inh.: -6%
[10]
  % Inh.: -7%
Prostanoid EP4
  % Inh.: -4%
Adrenergic α1A
  % Inh.: -3%
Sigma σ1
  % Inh.: 9%
E. coli UTI89 [11]; [12]
  body weight: ongoing weight loss among surviving animals
  survival: 50%
E. coli UTI89 [11]; pretreatment of the bacteria and mice
  body weight: recovery of pre-infection weights
E. coli UTI89 [11]; pretreatment of the bacteria and mice, 48 hrs, 10^8 CFU UTI89 i.p.
  survival: 100%
E. coli UTI89 [11]; subcutaneous 100 µL of 1 mg/ml twice daily
  tolerability in mice: without evident side effects
E. coli UTI89 [11]; subcutaneous DU011 and untreated UTI89
  body weight: stabilization of weights at the end of the experiment
E. coli UTI89 [11]; subcutaneous DU011 and untreated UTI89, 48 hrs
  survival: 80%
Potassium Channel [KATP]
  % Inh.: 12%
Dopamine D4.2
  % Inh.: 0%
Muscarinic M2
  % Inh.: 5%
